A short description of the assay: binding affinity was evaluated by measuring the ability to displace [3H]DPDPE radioligand binding from delta opioid receptor in guinea pig brain membranes.

`CCCCOc1c(O)ccc2c1C13CCN(CC4CC4)C(C2)[C@]1(OC)CCC(=O)C3` (stereo not given in full) [3-butoxy-17-cyclopropylmethyl-4-hydroxy-10-methoxy-17-azatetracyclo[7.5.3.01,10.02,7]heptadeca-2(7),3,5-trien-13-one] showed a Ki of 0.042 µM. This lies in the double-digit nanomolar range. The result for `COc1c(O)ccc2c1C13CCN(CC4CC4)C(C2)[C@]1(O)CCC(=O)C3` (stereo not given in full) [17-cyclopropylmethyl-4,10-dihydroxy-3-methoxy-17-azatetracyclo[7.5.3.01,10.02,7]heptadeca-2(7),3,5-trien-13-one] reads 0.334 µM. The compound `COc1c(O)ccc2c1C13CCN(CC4CC4)C(C2)[C@]1(OC)CCC(=O)C3` (stereo not given in full) [17-cyclopropylmethyl-4-hydroxy-3,10-dimethoxy-17-azatetracyclo[7.5.3.01,10.02,7]heptadeca-2(7),3,5-trien-13-one] had a Ki of 0.014 µM. This Ki lies about 24-fold lower than the previous one.

With `CCO[C@@]12CCC(=O)CC13CCN(CC1CC1)C2Cc1ccc(O)c(OC)c13` (stereo not given in full) [17-cyclopropylmethyl-10-ethoxy-4-hydroxy-3-methoxy-17-azatetracyclo[7.5.3.01,10.02,7]heptadeca-2(7),3,5-trien-13-one], the Ki was found to be 0.021 µM. The figure for `COc1cccc2c1[C@]13CCN(CC4CC4)[C@H](C2)[C@]1(OC)CCC(=O)C3` [Naltrindole analogue] is 0.061 µM.

Usually Ki stands for a measure of affinity in units of concentration, obtained from inhibition or displacement. A higher Ki goes with a looser hold on the target.

The record behind these values is BindingDB's records for doi:10.1021/jm00016a010 (University of Innsbruck, 1995).
